The record followed here is patent publication US20070178458A1, “Methods of diagnosis and prognosis of ovarian cancer II” (priority 2003, published 2007).

Assay [1] concerns KIAA1983 mRNA expression. Kind of assay: Change in KIAA1983 expression after treatment with methyl transferase inhibitor, quantitative RT-PCR. It counts as cell-based, human. To be noted: 1 μM for 72 hours, relative to GAPDH. The procedure:
(§1) FIG. 5 is a graphical representation showing the change In expression of KIAA1983 in epithelial ovarian cancer cell lines following treatment with the methyl transferase inhibitor 5-AZA (1 μM) for 72 hours, as determined by quantitative RT-PCR. The non-transformed cell line HOSE 6-3 was used as a control. Ovarian cancer cell lines were IGROV1, TOV21 G, OV90 and CAOV3. The relative amount of KIAA1983 mRNA in each cell line before (filled) and after (unfilled) treatment with methylation inhibitor was determined by comparison to a standard housekeeping gene (GAPDH), and is expressed as a fold change in expression level following treatment.
Total RNA was isolated from the normal and tumour cell lines, reverse transcribed into cDNA and used as template in a quantitative PCR using a LightCycler system (Roche Diagnostics). The relative amount of each gene product was determined by comparison to a standard housekeeping gene (GAPDH).
Thus, KIAA1983 is susceptible to gene silencing by hypermethylation thereby contributing to its reduced expression in epithelial ovarian cancers.

Assay [2] concerns MGC1136 expression. Kind of assay: Change in MGC1136 expression after treatment with methylation inhibitor, quantitative RT-PCR. It counts as cell-based, human. The conditions noted are these: 1 μM for 72 hours, adjusted for GAPDH. The procedure: as §1
FIG. 9 is a graphical representation showing MGC1136 expression in IGROV, TOV21G and CaOV3 cells, in the presence (+) or absence (−) of the methylation inhibitor 5AZA (1 μM 5AZA for 72 hours). MGC1136 expression is represented as a relative fold change in expression in each cell line following treatment with 5AZA, and adjusted for the level of the housekeeping gene GAPDH. Experiments were performed as described in the legend for FIG. 5.
However, expression of MGC1136 is not increased in TOV21 G cells (clear cell ovarian cancer) following treatment with the methylation inhibitor 5AZA. Thus, loss of MGC1136 expression by methylation of the MGC1136 promoter may be restricted to particular histological phenotypes of epithelial ovarian cancer.

On to `Nc1ncn([C@H]2C[C@H](O)[C@@H](CO)O2)c(=O)n1` [5-AZA, 5-aza-2′deoxycytodine], for which the “expression of KIAA1983 mRNA following treatment” value in assay [1] (epithelial ovarian cancer cell lines having reduced expression of KIAA1983 (IGROV1, TOV21G, OV90, CAOV3)) is recorded as “removes the block in expression of KIAA1983 mRNA”. Further, in assay [1] (normal ovarian cells (non-transformed HOSE 6-3 control)), the “expression of KIAA1983 following treatment” value was “note modulated”. Further, the results for the “expression of MGC1136 following treatment” value in assay [2] (CaOV3 cell line (serous epithelial ovarian cancer)), in assay [2] (IGROV cell line (serous epithelial ovarian cancer)) and in assay [2] (TOV21 G cells (clear cell ovarian cancer)) were “marked increase in expression of MGC1136”, “marked increase in expression of MGC1136” and “not increased”, respectively.
